Test results from patent US10485803B2, “Pyrimidine compounds as JAK kinase inhibitors” (THERAVANCE BIOPHARMA R&D IP, LLC, priority 2016, dated 2019).
Entries after “also recorded” stand apart in the source; their conditions may differ. Where two headings read alike, the source gives them in different places.

Tests used:
[1] = system: IL-13 induced STAT6 phosphorylation in HT-29 human colorectal adenocarcinoma cells; assay: Cellular JAK potency assay: inhibition of IL-13; assay type: cell-based; details: HT-29 cells
Procedure: The potency of test compounds for inhibition of the JAK-dependent cytokine interleuken-13 (IL-13) was assessed by measuring IL-13 (IL-13, R&D Systems) induced STAT6 phosphorylation in HT-29 human colorectal adenocarcinoma cells (ATCC).
The anti-STAT6 antibody (Cell Signaling Technologies) was conjugated to AlphaScreen acceptor beads (Perkin Elmer), while the anti-pSTAT6 (pTyr641) antibody (Cell Signaling Technologies) was biotinylated using EZ-Link Sulfo-NHS-Biotin (Thermo Scientific).
HT-29 cells were grown at 37° C. in a 5% CO2 humidified incubator in McCoy's 5a Modified medium (ATCC) supplemented with 10% FBS (Hyclone), 100 U/mL penicillin, 100 μg/mL streptomycin (Life Technologies), and 2 mM GlutaMAX (Life Technologies). On day 1 of the assay, cells were seeded at a 7,500 cells/well density in white poly-D-lysine-coated 384-well plates (Corning) with 25 μL medium, and were allowed to adhere overnight in the incubator. On day 2 of the assay, the medium was removed and replaced with 12 μL of assay buffer (Hank's Balanced Salt Solution/HBSS, 25 mM HEPES, and 1 mg/ml bovine serum albumin/BSA) containing dose-responses of test compounds. Compounds were serially diluted in DMSO and then diluted another 1000-fold in media to bring the final DMSO concentration to 0.1%. Cells were incubated with test compounds at 37° C. for 1 h, and followed by the addition of 12 μl of pre-warmed IL-13 (12 ng/ml in assay buffer) for stimulation. After incubating at 37° C. for 30 min, the assay buffer (containing compound and IL-13) was removed, and 10 μl of cell lysis buffer (25 mM HEPES, 0.1% SDS, 1% NP-40, 5 mM MgCl2, 1.3 mM EDTA, 1 mM EGTA, and supplement with Complete Ultra mini protease inhibitors and PhosSTOP from Roche Diagnostics). The plates were shaken at ambient temperature for 30 min before the addition of detection reagents. A mixture of biotin-anti-pSTAT6 and anti-STAT6 conjugated acceptor beads was added first and incubated at ambient temperature for 2 h, followed by the addition of streptavidin conjugated donor beads (Perkin Elmer). After a minimum of 2 h incubation, the assay plates were read on the EnVision plate reader.
Results were expressed as the negative logarithm of the IC50 value, pIC50.

[2] = Determination of absorption in cannulated rats; assay type: in vivo, Sprague Dawley rats; details: rat, oral vs IV dose
Procedure: Oral bioavailability (F %), fraction absorbed (Fa%) and fraction escaping hepatic clearance (Fh%) were determined in Sprague Dawley rats from the following two studies:
(1) Pharmacokinetics in rats following an IV dose of test compound: Following IV dosing, plasma samples were typically collected from 0-6 hr. Drug levels were determined using an LC-MS-MS method. The resulting drug levels were used to compute the IV pharmacokinetic parameters: AUC IV and Dose IV.
(2) Rats that have been cannulated in their portal vein (PV) and also in their jugular vein (JV) were dosed orally with test compound. Following oral dosing, plasma samples were typically collected from 0-6 hr from both the portal vein and the jugular vein. Drug levels were determined using an LC-MS-MS method. The resulting drug levels were used to compute the following pharmacokinetic parameters: AUC PO PV, AUC PO JV, and Dose PO.
Using data derived from the above studies, the oral bioavailability F %, and the quantities Fa% and Fh% were calculated from the following formulas: F%=(AUC PO JV/AUC IV)*(Dose IV/Dose PO)*100 Fa%=(AUC PO PV/AUC IV)*(Dose IV/Dose PO)*100 Fh%=AUC PO JV/AUC PO PV • where: • AUC PO JV=Area under the curve following oral dose and plasma collected from the jugular vein • AUC PO PV=Area under the curve following oral dose and plasma collected from the portal vein • AUC IV=Area under the curve following an intravenous dose • Dose IV=Intravenous Dose in mg/kg • Dose PO=Oral Dose in mg/kg

[3] = system: oxazolone-induced colitis; assay: Mouse model of oxazolone-induced colitis; assay type: in vivo, BALB/C mice; details: mice, PO, 1, 3, and/or 10 mg/kg BID
Procedure: Oxazolone-induced colitis is an experimental model that has a histological resemblance to human ulcerative colitis (Heller et al. […], 2002, 17, 629-638). Adult BALB/C mice from Harlan were used in the assay. On day 1, animals were lightly anesthetized with isoflurane and the hairs between the shoulder were carefully removed before oxazolone (4%, 150 μL, 4:1 acetone: olive oil formulation) or vehicle solution was slowly applied for skin sensitization. Seven days after skin sensitization, the mice were fasted overnight, anesthetized with isoflurane inhalation, and a 1 mL syringe equipped with a 3.5-F catheter, filled with oxazolone solution, was inserted carefully about 4 cm into the colon of the mouse. Following insertion, 50 μL of the oxazolone solution (1%, 1:1 ethanol:water formulation) was injected very slowly (over 30 sec using an injection pump) into the colon. The catheter was removed and the mice were held vertically (head down) for 2 min to ensure that the entire oxazolone solution remained inside the colon. Drug treatment (PO, BID or TID) or vehicle was initiated a day prior to the oxazolone intrarectal (IR) challenge. Two-day post oxazolone intrarectal challenge, the Disease Activity Index (DAI) was assessed by treatment-blinded experimenters for each mouse according to the criteria score: stool consistency score (0, normal; 2, loose; 4, diarrhea), gross bleeding score (0, absence; 2, blood tinged; 4, presence), and weight loss score (0, none; 1, 1%-5%; 2, 5%-10%; 3, 10%-20%; 4, more than 20%); DAI=average of (stool consistency score+gross bleeding score+weight loss score).

JAK1 = JAK1 (Homo sapiens (Human), UniProt P23458); assay: LanthaScreen JAK biochemical assay, JAK1
Procedure: (§1) A panel of four LanthaScreen JAK biochemical assays (JAK1, 2, 3 and Tyk2) were carried in a common kinase reaction buffer (50 mM HEPES, pH 7.5, 0.01% Brij-35, 10 mM MgCl2, and 1 mM EGTA). Recombinant GST-tagged JAK enzymes and a GFP-tagged STAT1 peptide substrate were obtained from Life Technologies.
(§2) Serially diluted compounds were pre-incubated with each of the four JAK enzymes and the substrate in white 384-well microplates (Corning) at ambient temperature for 1 h. ATP was subsequently added to initiate the kinase reactions in 10 μl total volume, with 1% DMSO. […] The plates were allowed to incubate at ambient temperature for 1 h before being read on the EnVision reader (Perkin Elmer).
(§3) For dose-response analysis, percent inhibition data were plotted vs. compound concentrations, and IC50 values were determined from a 4-parameter robust fit model with the Prism software (GraphPad Software). Results were expressed as pIC50 (negative logarithm of IC50) and subsequently converted to pKi (negative logarithm of dissociation constant, Ki) using the Cheng-Prusoff equation.

JAK2 = JAK2 (Homo sapiens (Human), UniProt O60674); assay: LanthaScreen JAK biochemical assay, JAK2
Procedure: as §1, §2, §3

JAK3 = JAK3 (Homo sapiens (Human), UniProt P52333); assay: LanthaScreen JAK biochemical assay, JAK3
Procedure: as §1, §2, §3

Tyk2 = Tyk2 (Homo sapiens (Human), UniProt P29597); assay: LanthaScreen JAK biochemical assay, Tyk2
Procedure: as §1, §2, §3

[4] = Colon pharmacokinetics in rats; assay type: in vivo, Sprague Dawley rats; details: rat, upon oral administration, dose not stated
[5] = system: mouse splenic NK, B and T cells; details: in vivo; for treatment effect on B and T cell populations: po
Procedure: Depletion of mouse splenic cells is an experimental model of immunosuppression (Kudlacz et al., Am. J. of Transplantation, 2004, 4, 51-57). The compound of Example 2 was assessed in the mouse splenic cell model following the same treatment paradigm as that used in the oxazolone-induced colitis model (Assay 8).
The compound (1, 10 and 100 mg/kg, BID) and tofacitinib (30 and 60 mg/kg, BID) as a positive control were dosed orally for three days to naïve mice. Spleens were harvested 1 h post last dose and crushed immediately for cell subtype staining. Prior to fixation, fluorophore-labelled antibodies for CD19 (FITC; B cells), CD3e (PE; pan T cells) and DX5 (APC; NK cells) were incubated with splenocyte samples from each animal to allow for simultaneous, multiple subtype % analysis on the flow cytometer. The number of total spleen cells for each animal was measured by Scepter™ 2.0 Handheld Automated Cell Counter.
The absolute number of lymphocyte subtype population (e.g., splenic B, T and NK cells) was calculated from the percentage of each subtype times total spleen cells for each animal. A one way ANOVA, with Dunnett's post hoc test, was used to compare the splenic lymphocytes number of the vehicle and test compound groups. The a level was set at p<0.05. Data were presented as the mean±SEM for each group.

[6] = in vivo
From the text: The objective of this assay was to determine the epidermal, dermal and plasma pharmacokinetics of a test compound following a 24 hr exposure to intact mouse or mini-pig skin.
Twenty-four hours prior to dosing the hair was shaved from the back of 25 g male Balb/c mice exposing an area at of least 6 cm^2 (about 10% of body surface) and, in a separate experiment, of 10 kg Gottingen mini-pigs exposing an area of at least 450 cm^2 (about 10% of body surface). […] The skin was covered with an adhesive cover to prevent loss of compound to the cage or bedding.
Following 24 h exposure, the backs were gently washed with soap and water to remove non-absorbed drug and patted dry. Immediately following this washing, blood was drawn by cardiac puncture from the mice and via venipuncture from the mini-pigs. The outer skin (stratum corneum) was then removed by adhesive tape stripping. Upon exposure of the epidermis a 0.5 cm punch biopsy was taken. The epidermis and dermis were quickly separated, weighed and snap frozen.

[7] = system: TPA-induced increase in ear thickness; assay: Topical TPA-induced irritant contact dermatitis model in mice; assay type: in vivo, Balb/c mice; details: 6 hours after TPA
Procedure: The objective of this assay is to assess the anti-inflammatory effect in a model of acute dermatitis of test compounds being studied for cutaneous inflammatory conditions such as atopic dermatitis (Dong et al., J Pharmacol Exp Ther, 2013, 344, 436-446).
Topical dermal application of phorbol ester 12-O-tetradecanoylphorbol-13-acetate (TPA) in mice causes an inflammatory response that is characterized by edema and neutrophil influx at the early phase (2-24 h) and by epidermal cell proliferation at the later phase (24-48 h) (Griffiths et al., Agents and Actions, 1988, 25, 344-351). Female Balb/c mice were topically administered with either vehicle (1:7 DMSO:acetone) or 20 μL of a solution of TPA (2.5 μg) in vehicle on each ear. At 30 min before and 15 min after TPA administration, either vehicle or the compound of Example 2 at doses of 30, 100, 300, 1000, and 3000 μg in vehicle was applied topically to each ear. The degree of inflammation was assessed as the change in ear thickness at 6 hours after TPA application.

Sequence of JAK1 (P23458 whole entry): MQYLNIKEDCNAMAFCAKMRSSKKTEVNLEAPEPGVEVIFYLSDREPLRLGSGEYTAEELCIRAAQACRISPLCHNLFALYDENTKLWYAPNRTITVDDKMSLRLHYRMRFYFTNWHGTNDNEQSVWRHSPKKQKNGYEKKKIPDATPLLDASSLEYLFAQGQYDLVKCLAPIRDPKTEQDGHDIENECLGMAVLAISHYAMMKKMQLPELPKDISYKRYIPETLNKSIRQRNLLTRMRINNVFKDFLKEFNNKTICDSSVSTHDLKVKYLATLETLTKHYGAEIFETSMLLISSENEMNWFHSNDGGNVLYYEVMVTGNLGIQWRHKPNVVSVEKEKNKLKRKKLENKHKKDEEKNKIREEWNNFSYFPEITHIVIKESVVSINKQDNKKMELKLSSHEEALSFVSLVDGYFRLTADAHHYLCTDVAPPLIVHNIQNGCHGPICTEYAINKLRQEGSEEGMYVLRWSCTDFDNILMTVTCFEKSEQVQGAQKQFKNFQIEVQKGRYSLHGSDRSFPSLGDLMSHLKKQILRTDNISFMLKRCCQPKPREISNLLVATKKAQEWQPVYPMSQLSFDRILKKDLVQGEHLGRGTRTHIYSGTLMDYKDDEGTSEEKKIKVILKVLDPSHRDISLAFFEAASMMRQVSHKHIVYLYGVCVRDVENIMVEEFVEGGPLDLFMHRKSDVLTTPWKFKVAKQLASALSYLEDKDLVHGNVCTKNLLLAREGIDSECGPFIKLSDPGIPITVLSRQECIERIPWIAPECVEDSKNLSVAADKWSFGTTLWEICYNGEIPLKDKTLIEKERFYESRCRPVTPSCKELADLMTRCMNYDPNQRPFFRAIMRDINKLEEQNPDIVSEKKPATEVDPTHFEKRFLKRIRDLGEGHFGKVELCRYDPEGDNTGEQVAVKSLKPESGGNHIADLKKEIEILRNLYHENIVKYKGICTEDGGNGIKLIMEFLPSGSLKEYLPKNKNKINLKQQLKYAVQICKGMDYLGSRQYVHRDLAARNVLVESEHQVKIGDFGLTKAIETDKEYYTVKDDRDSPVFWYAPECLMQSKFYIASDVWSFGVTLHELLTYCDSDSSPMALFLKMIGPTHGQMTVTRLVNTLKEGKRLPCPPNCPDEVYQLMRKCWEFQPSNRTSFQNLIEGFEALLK
Sequence of JAK3 (P52333 whole entry): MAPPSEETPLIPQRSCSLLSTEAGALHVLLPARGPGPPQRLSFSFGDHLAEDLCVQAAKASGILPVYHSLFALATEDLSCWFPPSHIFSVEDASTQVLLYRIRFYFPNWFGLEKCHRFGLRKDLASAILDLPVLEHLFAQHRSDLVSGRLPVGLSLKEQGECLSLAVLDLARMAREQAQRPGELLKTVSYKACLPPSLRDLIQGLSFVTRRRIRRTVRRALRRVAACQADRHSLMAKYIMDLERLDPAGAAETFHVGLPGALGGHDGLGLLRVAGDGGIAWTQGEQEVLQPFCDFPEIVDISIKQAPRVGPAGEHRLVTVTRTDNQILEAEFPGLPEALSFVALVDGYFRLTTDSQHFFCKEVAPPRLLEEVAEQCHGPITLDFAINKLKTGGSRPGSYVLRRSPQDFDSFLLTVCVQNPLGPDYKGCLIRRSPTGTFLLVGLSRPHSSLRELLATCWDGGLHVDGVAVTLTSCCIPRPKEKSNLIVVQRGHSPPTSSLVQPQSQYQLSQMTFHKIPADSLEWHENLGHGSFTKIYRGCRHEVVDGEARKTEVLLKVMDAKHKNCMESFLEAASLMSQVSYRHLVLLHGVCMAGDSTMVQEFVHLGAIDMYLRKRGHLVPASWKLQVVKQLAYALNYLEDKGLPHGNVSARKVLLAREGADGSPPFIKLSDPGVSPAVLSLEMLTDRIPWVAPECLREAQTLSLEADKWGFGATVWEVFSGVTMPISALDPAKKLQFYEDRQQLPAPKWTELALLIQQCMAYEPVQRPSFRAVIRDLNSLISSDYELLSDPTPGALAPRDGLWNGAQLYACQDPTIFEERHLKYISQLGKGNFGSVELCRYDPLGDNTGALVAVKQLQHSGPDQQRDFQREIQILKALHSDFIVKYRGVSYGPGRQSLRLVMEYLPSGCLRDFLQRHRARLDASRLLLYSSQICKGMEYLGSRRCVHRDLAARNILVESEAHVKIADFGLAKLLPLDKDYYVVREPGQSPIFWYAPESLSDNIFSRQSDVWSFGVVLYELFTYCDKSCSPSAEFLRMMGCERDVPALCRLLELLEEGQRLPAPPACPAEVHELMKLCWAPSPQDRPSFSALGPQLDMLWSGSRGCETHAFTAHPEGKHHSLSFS
Sequence of JAK2 (O60674 whole entry): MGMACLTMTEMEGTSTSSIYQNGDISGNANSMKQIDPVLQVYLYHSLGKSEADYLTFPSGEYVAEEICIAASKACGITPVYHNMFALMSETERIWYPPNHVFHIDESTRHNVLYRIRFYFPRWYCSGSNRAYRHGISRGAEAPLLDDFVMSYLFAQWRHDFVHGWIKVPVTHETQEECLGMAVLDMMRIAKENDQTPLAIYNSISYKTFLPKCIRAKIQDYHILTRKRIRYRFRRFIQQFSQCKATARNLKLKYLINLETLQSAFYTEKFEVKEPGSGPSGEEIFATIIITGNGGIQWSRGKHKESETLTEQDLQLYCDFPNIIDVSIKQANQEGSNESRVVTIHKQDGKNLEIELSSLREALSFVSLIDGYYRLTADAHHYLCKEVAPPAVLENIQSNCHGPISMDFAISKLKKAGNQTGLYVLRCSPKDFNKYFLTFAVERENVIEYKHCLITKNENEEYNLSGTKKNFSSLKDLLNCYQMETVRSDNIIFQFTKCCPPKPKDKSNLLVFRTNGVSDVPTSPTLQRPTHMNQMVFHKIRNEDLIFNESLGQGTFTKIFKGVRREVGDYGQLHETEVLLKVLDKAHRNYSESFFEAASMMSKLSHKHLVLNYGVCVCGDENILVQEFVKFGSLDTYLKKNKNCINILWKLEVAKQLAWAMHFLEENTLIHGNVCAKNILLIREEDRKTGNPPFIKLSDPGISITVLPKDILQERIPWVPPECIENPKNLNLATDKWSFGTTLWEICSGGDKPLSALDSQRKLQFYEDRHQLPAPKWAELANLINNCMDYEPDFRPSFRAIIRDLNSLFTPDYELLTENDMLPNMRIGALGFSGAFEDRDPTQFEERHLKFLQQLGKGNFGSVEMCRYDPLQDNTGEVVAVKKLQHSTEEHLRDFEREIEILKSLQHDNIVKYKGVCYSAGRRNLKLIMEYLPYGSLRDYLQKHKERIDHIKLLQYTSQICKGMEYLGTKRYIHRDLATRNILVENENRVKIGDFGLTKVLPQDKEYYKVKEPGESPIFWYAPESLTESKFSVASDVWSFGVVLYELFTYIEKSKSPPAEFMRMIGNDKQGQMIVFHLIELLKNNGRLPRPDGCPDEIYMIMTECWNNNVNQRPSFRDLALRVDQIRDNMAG
Sequence of Tyk2 (P29597 whole entry): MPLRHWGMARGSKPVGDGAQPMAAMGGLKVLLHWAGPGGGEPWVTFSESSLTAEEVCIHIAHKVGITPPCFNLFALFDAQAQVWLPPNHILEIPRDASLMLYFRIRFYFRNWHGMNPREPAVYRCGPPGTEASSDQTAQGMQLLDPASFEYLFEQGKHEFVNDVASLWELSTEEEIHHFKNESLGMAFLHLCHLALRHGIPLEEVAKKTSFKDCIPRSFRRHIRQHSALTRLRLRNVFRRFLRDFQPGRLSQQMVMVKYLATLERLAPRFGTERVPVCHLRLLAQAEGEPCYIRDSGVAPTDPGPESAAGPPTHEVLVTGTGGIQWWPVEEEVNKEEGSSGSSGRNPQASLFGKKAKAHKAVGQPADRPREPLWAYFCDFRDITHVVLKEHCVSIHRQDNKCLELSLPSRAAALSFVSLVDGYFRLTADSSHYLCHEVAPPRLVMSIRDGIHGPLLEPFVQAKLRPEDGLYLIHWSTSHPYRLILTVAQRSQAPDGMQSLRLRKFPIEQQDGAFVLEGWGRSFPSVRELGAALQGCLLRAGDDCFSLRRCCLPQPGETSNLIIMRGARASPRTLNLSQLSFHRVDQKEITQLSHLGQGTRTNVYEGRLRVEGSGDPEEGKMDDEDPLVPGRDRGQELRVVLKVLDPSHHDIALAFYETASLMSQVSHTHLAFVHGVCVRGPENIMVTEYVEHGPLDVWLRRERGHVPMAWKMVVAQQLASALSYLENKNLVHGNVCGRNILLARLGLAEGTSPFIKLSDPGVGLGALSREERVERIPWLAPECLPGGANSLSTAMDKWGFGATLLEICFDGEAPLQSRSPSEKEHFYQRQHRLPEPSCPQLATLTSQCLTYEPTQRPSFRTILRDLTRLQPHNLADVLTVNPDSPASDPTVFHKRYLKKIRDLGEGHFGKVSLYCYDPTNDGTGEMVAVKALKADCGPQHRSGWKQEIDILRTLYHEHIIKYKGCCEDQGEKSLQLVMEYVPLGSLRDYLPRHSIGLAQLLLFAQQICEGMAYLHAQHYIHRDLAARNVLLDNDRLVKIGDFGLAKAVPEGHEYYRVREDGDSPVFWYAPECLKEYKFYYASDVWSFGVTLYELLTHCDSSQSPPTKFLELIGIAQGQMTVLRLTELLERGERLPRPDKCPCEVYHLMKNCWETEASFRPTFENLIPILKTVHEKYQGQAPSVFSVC

Row | Compound | HT-29 (pIC50) [1] | oral bioavailability (F %) ([2]; jugular vein) | absorption at the portal vein (Fa%) [2] | decrease in DAI score as compared with vehicle treated animals [3] | JAK 1 (pKi) (JAK1) | JAK 2 (pKi) (JAK2) | JAK 3 (pKi) (JAK3) | Tyk 2 (pKi) (Tyk2) | ratio of exposure in the colon to exposure in plasma [4] | effect of immunosuppression [5] | treatment effect on B and T cell populations [5] | duration of sustained dermal levels ([6]; Gottingen, minipig) | duration of sustained dermal levels ([6]; male, Balb/c, mouse) | inhibition of TPA-induced increase in ear thickness ([7]; topical 30-3000 μg per ear) | maximum statistically significant inhibition of TPA-induced increase in ear thickness ([7]; topical, 1000 μg dose)
1 | COc1cc(Nc2cc(CO)[nH]n2)nc(N(C)[C@@H]2C[C@H]3CC[C@@H](C2)N3S(=O)(=O)N2CC(C#N)C2)n1 [Example 1, 1-(((1R,3s,5S)-3-((4-((5-(Hydroxymethyl)-1H-pyrazol-3-yl)amino)-6-methoxypyrimidin-2-yl)(methyl)amino)-8-azabicyclo[3.2.1]octan-8-yl)sulfonyl)azetidine-3-carbonitrile] | B (B represents a pIC50 value between 6.7 and 7.5 (IC50 between 200 nM and 32 nM)) | less than 5% | less than 25% | did not exhibit a statistically significant decrease | A (A represents a pKi value ≥10 (Ki≤0.1 nM)) | A (A represents a pKi value ≥10 (Ki≤0.1 nM)) | C (C represents a pKi value between 8 and 9 (Ki between 10 nM and 1 nM)) | B (B represents a pKi value between 9 and 10 (Ki between 1 nM and 0.1 nM)) | – | – | – | – | – | – | –
2 | COc1cc(Nc2cc(CO)[nH]n2)nc(N(C)[C@@H]2C[C@H]3CCC[C@@H](C2)N3S(=O)(=O)N2CC(C#N)C2)n1 [Example 2, 1-(((1R,3s,5S)-3-((4-((5-(Hydroxymethyl)-1H-pyrazol-3-yl)amino)-6-methoxypyrimidin-2-yl)(methyl)amino)-9-azabicyclo[3.3.1]nonan-9-yl)sulfonyl)azetidine-3-carbonitrile] | – | – | less than 25% | demonstrated activity; also recorded: statistically significant decrease | – | – | – | – | greater than 250 | minimal effect of immunosuppression | No treatment effect | at least 7 days | at least 2 days | dose- and concentration-dependent effect; also recorded: dose- and concentration-dependent inhibition | 41%
3 | C[C@@H]1CCN(C(=O)CC#N)C[C@@H]1N(C)c1ncnc2[nH]ccc12 [tofacitinib, reference compound] | – | – | – | – | – | – | – | – | – | – | No treatment effect | – | – | – | –
